This is an account of results in US9023797B2 (priority 2012, dated 2015).

The structures appear in SMILES notation.

This assay deals with Virus. Kind of assay: Design of Experiment study of viral inactivation process variables. It counts as cell-based. The conditions noted are these: 30 mM caprylate, albumin 5%, pH 4.4, 40° C., 120 min.

With `CCCCCCCC(=O)O` [caprylate, octanoic acid], the “predicted LRV (equivalent of 100%)” value is given as 2.16 and the “predicted LRV on the 0 to 100 scale (maximized)” value is given as 100%.
